These results are taken from PubChem BioAssay AID1259407 (Chemical Carcinogenesis Research Information System (CCRIS), 2018).

The source made the active and inactive calls. The rule behind the calls is not given here.

This data set deals with CCRIS mutagenicity, Ames/micronucleus/aberration tests. Nature of the data set: CCRIS mutagenicity studies.
The mark [1] stands for this setting: Test System: AMES SALMONELLA TYPHIMURIUM, Strain/Indicator: TA98, Metabolic Activation: NONE, Method: PREINCUBATION
[2] abbreviates: Test System: AMES SALMONELLA TYPHIMURIUM, Strain/Indicator: TA100, Metabolic Activation: NONE, Method: PREINCUBATION
Setting [3] is: Test System: AMES SALMONELLA TYPHIMURIUM, Strain/Indicator: TA100, Metabolic Activation: NONE, Method: STANDARD PLATE.

For `COc1cc(N)ccc1C`, the mutagenic call is “active; positive” (Test System: AMES SALMONELLA TYPHIMURIUM, Strain/Indicator: TA98, Metabolic Activation: HAMSTER, LIVER, S-9, AROCLOR 1254 (30%), Method: PREINCUBATION); “inactive; negative” under setting [1]; “active; positive” (Test System: AMES SALMONELLA TYPHIMURIUM, Strain/Indicator: TA98, Metabolic Activation: RAT, LIVER, S-9, AROCLOR 1254 (30%), Method: PREINCUBATION); “active; positive” (Test System: AMES SALMONELLA TYPHIMURIUM, Strain/Indicator: TA100, Metabolic Activation: HAMSTER, LIVER, S-9, AROCLOR 1254 (30%), Method: PREINCUBATION); “inactive; negative” under setting [2]; “active; positive” (Test System: AMES SALMONELLA TYPHIMURIUM, Strain/Indicator: TA100, Metabolic Activation: RAT, LIVER, S-9, AROCLOR 1254 (30%), Method: PREINCUBATION).

On to `O=[N+]([O-])C(Br)Br`, for which the mutagenic call was “inactive; negative” (Test System: Ames Salmonella typhimurium, Strain/Indicator: RSJ100, Metabolic Activation: None, Method: Standard plate); “inactive; negative” (Test System: Ames Salmonella typhimurium, Strain/Indicator: RSJ100, Metabolic Activation: Rat, Liver, S-9, Aroclor, Method: Standard plate); “inactive; negative” (Test System: Ames Salmonella typhimurium, Strain/Indicator: TA98, Metabolic Activation: None, Method: Standard plate); “inactive; negative” (Test System: Ames Salmonella typhimurium, Strain/Indicator: TA98, Metabolic Activation: Rat, Liver, S-9, Aroclor, Method: Standard plate); “active; positive” (Test System: Ames Salmonella typhimurium, Strain/Indicator: TA100, Metabolic Activation: None, Method: Standard plate); “active; positive” (Test System: Ames Salmonella typhimurium, Strain/Indicator: TA100, Metabolic Activation: Rat, Liver, S-9, Aroclor, Method: Standard plate). The mutagenic call reads like this: (Test System: Ames Salmonella typhimurium, Strain/Indicator: TA104, Metabolic Activation: None, Method: Standard plate) “inactive; negative”; (Test System: Ames Salmonella typhimurium, Strain/Indicator: TA104, Metabolic Activation: Rat, Liver, S-9, Aroclor, Method: Standard plate) “inactive; negative”; (Test System: Ames Salmonella typhimurium, Strain/Indicator: TPT100, Metabolic Activation: None, Method: Standard plate) “inactive; negative”.

In the case of `O=[N+]([O-])c1ccc(/C=C/c2cccc(Cl)c2)cc1`, the mutagenic call (Test System: AMES SALMONELLA TYPHIMURIUM, Strain/Indicator: TA98 (NR), Metabolic Activation: NONE, Method: STANDARD PLATE) is “active; positive”; the mutagenic call (Test System: AMES SALMONELLA TYPHIMURIUM, Strain/Indicator: TA98 (NR), Metabolic Activation: S-9, Method: STANDARD PLATE) is “active; positive”; the mutagenic call (Test System: AMES SALMONELLA TYPHIMURIUM, Strain/Indicator: TA98, Metabolic Activation: NONE, Method: STANDARD PLATE) is “active; positive”; the mutagenic call (Test System: AMES SALMONELLA TYPHIMURIUM, Strain/Indicator: TA98, Metabolic Activation: S-9, Method: STANDARD PLATE) is “active; positive”; the mutagenic call (Test System: AMES SALMONELLA TYPHIMURIUM, Strain/Indicator: TA100(NR), Metabolic Activation: NONE, Method: STANDARD PLATE) was “inactive; negative”; the mutagenic call (Test System: AMES SALMONELLA TYPHIMURIUM, Strain/Indicator: TA100 (NR), Metabolic Activation: S-9, Method: STANDARD PLATE) is “active; positive”. Also, the mutagenic call is “active; positive” under setting [3] and “active; positive” (Test System: AMES SALMONELLA TYPHIMURIUM, Strain/Indicator: TA100, Metabolic Activation: S-9, Method: STANDARD PLATE).

Regarding `Cc1c2c3ccccc3nc-2n(C)c2ccccc12`, the mutagenic call reads like this: (Test System: AMES SALMONELLA TYPHIMURIUM, Strain/Indicator: TA97, Metabolic Activation: RAT, LIVER, S-9, AROCLOR 1254, Method: STANDARD PLATE) “active; positive”; (Test System: AMES SALMONELLA TYPHIMURIUM, Strain/Indicator: TA102, Metabolic Activation: RAT, LIVER, S-9, AROCLOR 1254, Method: STANDARD PLATE) “active; positive”.

On to `COc1cc(OC)c2c(c1)O[C@@H]1OC=C[C@H]21`, for which the mutagenic call is, setting by setting: under setting [1], “inactive; negative”; (Test System: AMES SALMONELLA TYPHIMURIUM, Strain/Indicator: TA98, Metabolic Activation: RAT, LIVER, S-9, AROCLOR 1254, Method: PREINCUBATION) “active; positive”; under setting [2], “active; positive”; (Test System: AMES SALMONELLA TYPHIMURIUM, Strain/Indicator: TA100, Metabolic Activation: RAT, LIVER, S-9, AROCLOR 1254, Method: PREINCUBATION) “active; positive”.

For the molecule `O=[N+]([O-])c1cc2c(ccc3cc(N(CCCl)CCCl)ccc32)o1`, the mutagenic call is “active; positive” (Test System: AMEA SALMONELLA TYPHIMURIUM, Strain/Indicator: TA100(NR), Metabolic Activation: NONE, Method: STANDARD PLATE); “active; positive” (Test System: AMES SALMONELLA TYPHIMURIUM, Strain/Indicator: TA100(NR), Metabolic Activation: RAT, LIVER, S-9, AROCLOR 1254, Method: STANDARD PLATE); “active; positive” under setting [3]; “active; positive” (Test System: AMES SALMONELLA TYPHIMURIUM, Strain/Indicator: TA100, Metabolic Activation: RAT, LIVER, S-9, AROCLOR 1254, Method: STANDARD PLATE).

As to `O=[N+]([O-])c1ccc(Br)cc1`, the mutagenic call is, setting by setting: (End Point: IN VITRO CHROMOSOMAL ABERRATIONS, Test System: HUMAN PERIPHERAL LYMPHOCYTES, Metabolic Activation: NONE) “inactive; negative”; under setting [1], “inactive; negative”; (Test System: AMES SALMONELLA TYPHIMURIUM, Strain/Indicator: TA98, Metabolic Activation: RAT, LIVER, S-9, KANECHLOR 500, Method: PREINCUBATION) “inactive; negative”; under setting [2], “inactive; negative”; (Test System: AMES SALMONELLA TYPHIMURIUM, Strain/Indicator: TA100, Metabolic Activation: RAT, LIVER, S-9, KANECHLOR 500, Method: PREINCUBATION) “active; positive”.
